Reference: PMC10935581 (Biochemistry, 2023)
“Also recorded” adds a separate entry of the source. Like-named read-outs stand apart in the source and are kept apart here.

Experiments:
[1] = molecular target: T1, NAMPT (Homo sapiens, UniProt P43490); test: Coupled primary NAMPT enzyme assay; type: biochemical; settings: for HTS outcome (increase of NAMPT enzyme activity): screen of ChemDiv and Microsource Spectrum libraries
[2] = molecular target: T1, NAMPT; test: Orthogonal NAMPT endpoint assay; type: biochemical
[3] = test system: THP-1 human leukemic monocyte cell line; test: Cellular NAD+ by miniaturized NADglo assay; type: cell-based; settings: 24 h incubation
[4] = molecular target: T1, NAMPT; settings: cited from earlier work
[5] = molecular target: T1, NAMPT; test: Fluorescence polarization binding assay
[6] = molecular target: T1, NAMPT; test: Uncoupled ATPase reaction of NAMPT; type: biochemical; settings: absence of PRPP

T1 sequence (P43490 whole entry): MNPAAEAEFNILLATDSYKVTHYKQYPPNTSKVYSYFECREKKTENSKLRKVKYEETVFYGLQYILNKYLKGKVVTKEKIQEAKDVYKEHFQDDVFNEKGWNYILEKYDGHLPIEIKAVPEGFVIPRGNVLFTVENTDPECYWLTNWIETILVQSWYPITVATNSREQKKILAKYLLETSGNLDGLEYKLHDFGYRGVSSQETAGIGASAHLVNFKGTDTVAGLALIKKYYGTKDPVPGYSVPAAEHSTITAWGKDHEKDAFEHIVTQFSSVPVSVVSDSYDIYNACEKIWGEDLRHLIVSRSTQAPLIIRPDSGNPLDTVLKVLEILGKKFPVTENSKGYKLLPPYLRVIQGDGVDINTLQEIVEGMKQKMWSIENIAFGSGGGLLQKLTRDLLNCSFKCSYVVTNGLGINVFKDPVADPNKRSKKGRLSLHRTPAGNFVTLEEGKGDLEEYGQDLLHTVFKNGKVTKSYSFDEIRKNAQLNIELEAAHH

## NC(=O)c1cccnc1 [NAM, nicotinamide]
[1]; read-out: Apparent KM for NAM, no activator
  Km: ~145 nM

## O=c1c(O)c(-c2ccc(O)c(O)c2)oc2cc(O)cc(O)c12 [quercitin]
[1]; at ≤ 40 μM
  NAMPT activation in primary assay: devoid of activity

## O=C(NCc1ccncc1)Nc1ccc(S(=O)(=O)N2CC3CCC(C2)O3)cc1 [SBI-0797812]
[2]
  Effect on ATP dependence of NAMPT (KM(ATP), KI(ATP)): significant left-shift in KM(ATP); also recorded: dramatic left-shift in both KM and KI for ATP
[2]; ATP 4 mM, NAM 3 or 300 μM, PRPP 40 μM
  NAMPT activity relative to vehicle control: Inhibition of NAMPT activity
[2]; Fig. 2D
  NAMPT activation: confirmed to activate NAMPT
[2]; left-shifted
  KI(ATP) in presence of activator: < 1 mM
[3]
  Effect on cellular NAD+ (in words): reducing cellular levels of NAD^+; also recorded: inhibited both NAMPT activity and NAD^+ formation in THP-1 cells

## O=c1c(-c2ccc(O)cc2)coc2cc(O)cc(O)c12 [genestein]
[1]
  HTS outcome (increase of NAMPT enzyme activity): validated hits

## COc1ccc(CC(=O)c2ccc(O)cc2O)cc1 [onenetin]
[1]
  HTS outcome (increase of NAMPT enzyme activity): validated hits

## C/C=C(/C(=C/C)c1ccc(O)cc1)c1ccc(O)cc1 [dienestrol]
[1]
  HTS outcome (increase of NAMPT enzyme activity): validated hits

## Nc1ncnc2c1ncn2[C@@H]1O[C@H](COP(=O)(O)OP(=O)(O)OP(=O)(O)O)[C@@H](O)[C@H]1O [ATP]
[4]; read-out: KM(ATP)
  Km: 7 mM

## COc1cccc(NCC(F)Cn2c3ccc(Br)cc3c3cc(Br)ccc32)c1 (stereo not drawn) [P7C3-A20]
[5]
  Binding to NAMPT (in words): did not show any NAMPT binding activity

## C[C@@H]1O[C@@H](Oc2c(-c3ccc(O)c(O)c3)oc3cc(O)cc(O)c3c2=O)[C@H](O)[C@H](O)[C@H]1O [quercitrin]
[1]
  Maximal activation of NAMPT relative to vehicle control: high activation at higher concentrations
  HTS outcome (increase of NAMPT enzyme activity): validated hits
[1]; rate increased
  Effect on KM(ATP): without significant effect
[5]
  Binding to NAMPT (in words): weak binding NAMPT ligand
  Kd: 16 µM
[6]
  Effect on uncoupled ATP consumption: increase uncoupled ATP consumption
[3]
  Effect on cellular NAD+ (in words): inactive in cells
[3]; listed as Quercitrin
  Effect on cellular NAD+ (in words): inactive

## NC(=O)c1ccc[n+]([C@@H]2O[C@H](COP(=O)([O-])OP(=O)(O)OC[C@H]3O[C@@H](n4cnc5c(N)ncnc54)[C@H](O)[C@@H]3O)[C@@H](O)[C@H]2O)c1 [NAD^+, Nicotinamide adenine dinucleotide]
[4]; read-out: KI for inhibition of NAMPT activity
  Ki: 2000 nM
